Earlier results as cited in patent US20110151028A1, “Topical vaginal preparation” (priority 2009, published 2011).

Conditions: carrier: standard hydrophilic transdermal carrier, propylene glycol

## CC[C@H]1OC(=O)[C@H](C)[C@@H](O[C@H]2C[C@@](C)(OC)[C@@H](O)[C@H](C)O2)[C@H](C)[C@@H](O[C@@H]2O[C@H](C)C[C@H](N(C)C)[C@H]2O)[C@](C)(O)C[C@@H](C)C(=O)[C@H](C)[C@@H](O)[C@]1(C)O [erythromycin]
  systemic absorption of transdermally delivered erythromycin: rapid systemic absorption
